Test results published in patent publication US7772188B2, “Methods and compositions for the treatment of gastrointestinal disorders” (priority 2003, dated 2010).
Positions of bridges follow the written chain, without caps; N, C: chain ends. Residues, ends and D or L forms follow the SMILES beside them.

Assays:
intestinal GC-C receptor = molecular target: T1, intestinal GC-C receptor (Homo sapiens, UniProt P25092); test: Intestinal GC-C receptor activity assay (cyclic GMP by EIA in T84 cells); format: cell-based; details: chemically synthesized peptides, FIG. 2
T1 construct: host or cells: T84 human colon carcinoma cells
T1 sequence (P25092 24-1073): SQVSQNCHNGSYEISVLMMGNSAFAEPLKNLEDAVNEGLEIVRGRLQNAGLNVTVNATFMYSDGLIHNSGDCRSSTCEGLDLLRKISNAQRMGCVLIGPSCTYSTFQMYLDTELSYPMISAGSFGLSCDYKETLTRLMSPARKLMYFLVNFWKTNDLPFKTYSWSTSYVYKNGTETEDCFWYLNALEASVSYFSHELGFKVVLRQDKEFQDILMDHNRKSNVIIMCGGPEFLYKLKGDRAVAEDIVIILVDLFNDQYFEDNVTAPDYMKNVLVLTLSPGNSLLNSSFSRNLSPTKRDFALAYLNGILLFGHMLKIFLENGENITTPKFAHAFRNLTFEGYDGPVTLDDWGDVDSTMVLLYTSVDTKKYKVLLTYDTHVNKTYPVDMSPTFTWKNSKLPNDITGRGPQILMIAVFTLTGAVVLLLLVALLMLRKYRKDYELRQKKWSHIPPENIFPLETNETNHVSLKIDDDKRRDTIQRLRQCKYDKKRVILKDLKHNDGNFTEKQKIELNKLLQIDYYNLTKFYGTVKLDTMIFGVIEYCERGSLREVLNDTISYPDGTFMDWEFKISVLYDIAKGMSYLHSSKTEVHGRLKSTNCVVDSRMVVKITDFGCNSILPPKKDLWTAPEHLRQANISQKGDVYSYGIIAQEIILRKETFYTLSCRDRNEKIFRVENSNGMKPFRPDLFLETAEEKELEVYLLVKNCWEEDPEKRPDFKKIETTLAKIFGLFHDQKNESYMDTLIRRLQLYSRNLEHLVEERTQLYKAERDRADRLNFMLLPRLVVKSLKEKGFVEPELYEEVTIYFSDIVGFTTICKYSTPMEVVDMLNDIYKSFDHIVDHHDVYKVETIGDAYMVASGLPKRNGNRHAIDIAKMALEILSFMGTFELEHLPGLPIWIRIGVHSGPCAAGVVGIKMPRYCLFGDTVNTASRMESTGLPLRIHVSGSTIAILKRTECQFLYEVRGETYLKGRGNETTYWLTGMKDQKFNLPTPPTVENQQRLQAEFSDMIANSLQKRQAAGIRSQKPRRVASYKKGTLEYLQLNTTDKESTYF
Method: The ability of SEQ ID NO:5, SEQ ID NO:4, and SEQ ID NO:3 to activate the intestinal GC-C receptor was assessed in an assay employing the T84 human colon carcinoma cell line (American Type Culture Collection (Bethesda, Md.)). For the assays cells were grown to confluency in 24-well culture plates with a 1:1 mixture of Ham's F12 medium and Dulbecco's modified Eagle's medium (DMEM), supplemented with 5% fetal calf serum and were used at between passages 54 and 60.
Briefly, monolayers of T84 cells in 24-well plates were washed twice with 1 ml/well DMEM, then incubated at 37° C. for 10 min with 0.45 ml DMEM containing 1 mM isobutylmethylxanthine (IBMX), a cyclic nucleotide phosphodiesterase inhibitor. Test peptides (50 μl) were then added and incubated for 30 minutes at 37° C. The media was aspirated and the reaction was then terminated by the addition of ice cold 0.5 ml of 0.1N HCl. The samples were held on ice for 20 minutes and then evaporated to dryness using a heat gun or vacuum centrifugation. The dried samples were resuspended in 0.5 ml of phosphate buffer provided in the Cayman Chemical Cyclic GMP EIA kit (Cayman Chemical, Ann Arbor, Mich.). Cyclic GMP was measured by EIA according to procedures outlined in the Cayman Chemical Cyclic GMP EIA kit.

[1] = tested on: abdominal response to colorectal distension; test: Trinitrobenzenesulphonic acid (TNBS)-induced rectal allodynia model, colorectal distension; format: in vivo, Wistar rats; details: rats, FIG. 7
Method: Male Wistar rats (220-250 g) were premedicated with 0.5 mg/kg of acepromazine injected intraperitoneally (IP) and anesthetized by intramuscular administration of 100 mg/kg of ketamine. Pairs of nichrome wire electrodes (60 cm in length and 80 μm in diameter) were implanted in the striated muscle of the abdomen, 2 cm laterally from the white line. The free ends of electrodes were exteriorized on the back of the neck and protected by a plastic tube attached to the skin. Electromyographic (EMG) recordings were started 5 days after surgery. Electrical activity of abdominal striated muscle was recorded with an electroencephalograph machine (Mini VIII, Alvar, Paris, France) using a short time constant (0.03 sec.) to remove low-frequency signals (<3 Hz).
Ten days post surgical implantation, trinitrobenzenesulphonic acid (TNBS) was administered to induce rectal inflammation. TNBS (80 mg kg^−1 in 0.3 ml 50% ethanol) was administered intrarectally through a silicone rubber catheter introduced at 3 cm from the anus under light diethyl-ether anesthesia, as described (Morteau et al. 1994 Dig Dis Sci 39:1239). […] Evaluation of rectal sensitivity, as measured by EMG, was performed before (1-2 days) and 3 days following rectal instillation of TNBS.
The number of spike bursts that corresponds to abdominal contractions was determined per 5 min periods. […]

PBQ-induced writhing = test: Phenylbenzoquinone (PBQ)-induced writhing model
intestinal secretion = test: Suckling mouse model of intestinal secretion (SuMi assay); format: in vivo; details: suckling mice; dose response; FIG. 5a/5b
Method: In this model a test compound is administered to suckling mice that are between 7 and 9 days old. After the mice are sacrificed, the gastrointestinal tract from the stomach to the cecum is dissected (“guts”). The remains (“carcass”) as well as the guts are weighed and the ratio of guts to carcass weight is calculated. If the ratio is above 0.09, one can conclude that the test compound increases intestinal secretion. […] The effect of Zelnorm® was also studied.

C[C@@H]1NC(=O)[C@@H]2CCCN2C(=O)[C@H](CC(N)=O)NC(=O)[C@@H]2CSSC[C@H](N)C(=O)N[C@H]3CSSC[C@H](NC1=O)C(=O)N[C@@H]([C@@H](C)O)C(=O)NCC(=O)N[C@H](C(=O)N[C@@H](Cc1ccc(O)cc1)C(=O)O)CSSC[C@H](NC(=O)[C@H](Cc1ccc(O)cc1)NC(=O)[C@H](CCC(=O)O)NC3=O)C(=O)N2 [SEQ ID NO:3, Cys Cys Glu Tyr Cys Cys Asn Pro Ala Cys Thr Gly Cys Tyr] (H-CCEYCCNPACTGCY-OH; disulfide 1-6, 2-10, 5-13; N-terminus and C-terminus assumed)
activity in GC-C receptor activity assay (intestinal GC-C receptor): activity comparable to SEQ ID NO:4 | abdominal response (abdominal contractions, EMG) ([1]; 0.3 μg/kg): Significant decreases in abdominal response | abdominal response (abdominal contractions, EMG) ([1]; 3 μg/kg): Significant decreases in abdominal response | antinociceptive effect relative to indomethacin (PBQ-induced writhing; mouse PBQ writhing, visceral pain model): antinociceptive effects in this visceral pain model comparable to the intermediate doses of indomethacin | writhings compared to the vehicle control (PBQ-induced writhing; mouse, oral, 2.5 mg/kg dose, FIG. 8b): Significant reductions in writhings | intestinal secretion (guts to carcass weight ratio) (intestinal secretion): increase intestinal secretion
